From US20140038920A1, “TFEB PHOSPHORYLATION INHIBITORS AND USES THEREOF” (FONDAZIONE TELETHON, priority 2011, published 2014)

How the values were obtained:
TFEB = TFEB molecular weight shift and localization in TFEB-3xFLAG HeLa cells stimulated with amino-acid rich medium plus inhibitor (FIG. 19B); type: cell-based; details: Torin 1 250 nM, Rapamycin 2.5 μM
Method: FIG. 19 mTORC1 regulates TFEB. (A) Lysosomal stress inhibits mTOR signaling. Immunoblotting of protein extracts isolated from HeLa cells treated overnight, as indicated. Membranes were probed with antibodies for p-T202/Y204-ERK1/2, ERK1/2, p-T389-S6K, and S6K to measure ERK and mTORC1 activities. […] FLAG immunoblotting of cytosolic and nuclear fractions isolated from TFEB-3×FLAG HeLa cells cultured in amino acid-free media and subsequently stimulated as indicated for at least 3 h. Correct subcellular fractionation was verified with H3 and tubulin antibodies. (C, D) Effects and dose—response curves of ERK and mTOR inhibitors on TFEB nuclear translocation. […] After 3 h at 37° C. in RPMI medium containing one of each of the compounds, the cells were washed, fixed, and stained with DAPI and photographed by using confocal automated microscopy (Opera high content system, Perkin Elmer). (C) Representative images of test concentrations for each compound. Scale bars represent 30 μm. […] The EC50 for each compound was calculated using Prism software (see Materials and Methods for details). (E) Amino acids induce TFEB molecular weight shift. Immunoblotting of protein extracts isolated from HEK-293T cells transfected either TFEB-3×FLAG or with an empty vector were nutrient starved and stimulated for 50 minutes with amino acids (a.a.). Antibody used were p-T389-S6K, S6K and FLAG. (F) Rag knockdown induces TFEB nuclear translocation. HeLa cells stably expressing Flag-3×TFEB were infected with lentiviruses encoding a Short hairpin (Sh-) RNA targeting luciferase (control) or RagC and RagD mRNAs. […] TFEB localization was detected with a FLAG antibody, whereas tubulin and H3 were used as controls for the cytosolic and nuclear fraction, respectively; levels of S6K phosphorylation were used to test RagC and RagD knockdown efficiency.
The mouse anti-TFEB monoclonal antibody was purchased from My Biosource catalogue No. MBS 120432. To generate anti-pS142 specific antibodies, rabbits were immunized with the following peptide coupled to KLH: AGNSAPN{pSer}[…]. Following the fourth immunization, rabbits were sacrificed and the serum was collected. Non-phosphospecific antibodies were depleted from the serum by circulation through a column containing the nonphosphorylated antigene. The phosphospecific antibodies were subsequently purified using a column containing the phosphorylated peptide. Cells were lysed with M-PER buffer (Thermo) containing protease and phosphatase inhibitors (Sigma); nuclear/cytosolic fractions were isolated as above described. Proteins were separated by SDS-PAGE (Invitrogen; reduced NuPAGE 4-12% Bis-tris Gel, MES SDS buffer). If needed, the gel was stained using 20 ml Imperial Protein Stain (Thermo Fisher) at room temperature for 1 h and de-stained with water. […]

TFEB S142 = TFEB S142 phosphorylation with p-S142 phospho-antibody in HeLa cells (FIG. 20A); type: cell-based; details: starved cells supplemented with normal media with inhibitor
Method: FIG. 20 mTORC1 phosphorylates TFEB at serine 142 (S142). […] HeLa cells were treated as indicated and total and nuclear extracts were probed with a TFEB p-S142 phospho-antibody and with anti-FLAG antibody. (B) Schematic representation of TFEB protein structure with the predicted mTORC1 phosphorylation sites and their conservation among vertebrates. Numbering is according to human isoform 1. (C) Sequence conservation scores of the phosphorylation sites and quantitative agreement between mTOR consensus motif and the sequence around the phosphorylation sites of TFEB. (D) S142 and S211 regulate TFEB localization. Flag immunostaining of TFEB subcellular localization in HeLa cells expressing serine-to-alanine mutated versions of TFEB-3×Flag. Nuclei were stained with DAPI. Values are means of five fields containing at least 50 transfected cells. Student's t-test (unpaired) ***P<0.001. Scale bars represent […].
The mouse anti-TFEB monoclonal antibody was purchased from My Biosource catalogue No. MBS 120432. To generate anti-pS142 specific antibodies, rabbits were immunized with the following peptide coupled to KLH: AGNSAPN{pSer}[…]. Following the fourth immunization, rabbits were sacrificed and the serum was collected. Non-phosphospecific antibodies were depleted from the serum by circulation through a column containing the nonphosphorylated antigene. […]

SMILES: CO[C@H]1C[C@@H]2CC[C@@H](C)[C@@](O)(O2)C(=O)C(=O)N2CCCC[C@H]2C(=O)O[C@H]([C@H](C)C[C@@H]2CC[C@@H](O)[C@H](OC)C2)CC(=O)[C@H](C)/C=C(\C)[C@@H](O)[C@@H](OC)C(=O)[C@H](C)C[C@H](C)/C=C/C=C/C=C/1C [RAPAMYCIN]
- TFEB subcellular localization after nutrient stimulation (TFEB): did not affect TFEB subcellular localization
- TFEB molecular weight shift induced by nutrients (TFEB; U0126 50 μM): partial molecular weight shift
- nutrient-induced S142 phosphorylation of TFEB (TFEB S142): did not

SMILES: CCC(=O)N1CCN(c2ccc(-n3c(=O)ccc4cnc5ccc(-c6cnc7ccccc7c6)cc5c43)cc2C(F)(F)F)CC1 [TORIN 1]
- TFEB subcellular localization after nutrient stimulation (TFEB): massive TFEB nuclear accumulation
- nutrient-induced S142 phosphorylation of TFEB (TFEB S142): clearly blunted nutrient-induced S142 phosphorylation
